The structures appear in SMILES notation. Calls of active or inactive are those of the source. The calls are words filed in the database; no cut-off is given here.

For series [1], the system named is Platelet. Description: Inhibition of platelet aggregation in human platelet rich plasma at 20 uM preincubated for 5 mins followed by aggregation inducer addition and measured after 5 mins by light transmission aggregometry relative to control. The conditions noted are these: 10 min. Format: functional.
A short description of series [2]: Metabolic stability in human liver microsomes assessed as half life at 1 uM preincubated for 1 hr followed by NADPH addition and measured upto 60 mins by LC-MS/MS analysis. Format: ADME, Microsome. As to conditions: time < 120 min.
Series [3] relates to Platelet. Description: Inhibition of platelet aggregation in human platelet rich plasma preincubated for 5 mins followed by aggregation inducer addition and measured after 5 mins by light transmission aggregometry. It is filed as functional, cell-based.
The target in series [4] is T1, Proteinase-activated receptor 4 (Homo sapiens) (UniProt Q96RI0).
T1 sequence (whole entry): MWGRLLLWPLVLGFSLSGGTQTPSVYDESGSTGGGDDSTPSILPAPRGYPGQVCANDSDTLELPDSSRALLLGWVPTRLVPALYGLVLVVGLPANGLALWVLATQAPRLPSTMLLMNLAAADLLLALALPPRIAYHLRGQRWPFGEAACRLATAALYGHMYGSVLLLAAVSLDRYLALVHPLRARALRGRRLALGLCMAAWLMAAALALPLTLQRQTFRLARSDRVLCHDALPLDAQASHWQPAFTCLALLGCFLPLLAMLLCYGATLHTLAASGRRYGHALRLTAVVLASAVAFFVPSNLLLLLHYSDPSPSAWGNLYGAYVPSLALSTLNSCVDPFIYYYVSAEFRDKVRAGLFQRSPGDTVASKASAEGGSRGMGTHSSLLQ
Description: Antagonist activity at PAR4 in human filtered plasma assessed as inhibition of PAR4-activated peptide AYPGPK-NH2 induced platelet aggregation at 100 nM preincubated for 5 mins followed by aggregation inducer addition and measured after 5 mins by light transmission aggregometry relative to control. As to conditions: filed as antagonist, time 10.0 min. It is filed as functional, cell-free.

Series [5] is described as follows: Toxicity in C57BL/6J mouse assessed as prolongation of bleeding time at 3 to 12 mg/kg, po administered via oral gavage and measured after 2 hrs. It is filed as organism-based. As to conditions: in vivo, dose 3-12 mg/kg.
Series [6] can be described thus: Oral bioavailability in Sprague-Dawley rat at 50 mg/kg. Format: ADME, organism-based. The conditions noted are these: in vivo.

Turning to `COc1nn2cc(-c3cc4c(C(F)(F)F)cc5c(c4o3)OCCO5)nc2s1`, the inhibition at 20 µM in the series with Platelet [1] turned out to be 5.75%.
On the same count and under the same terms, to `COCCCc1cc2c(c3oc(-c4cn5nc(OC)sc5n4)cc13)OCCO2` belongs 4.17%; to `COc1nn2cc(-c3cc4ccc5c(c4o3)C=CC(C)(C)O5)nc2s1`, 2.58%.
The same measure, in the same setting: to `COc1nn2cc(-c3cc4c(OCCN5CCS(=O)(=O)CC5)cc5c(c4o3)OCCO5)nc2s1` belongs -4.63%; to `COc1nn2cc(-c3cc4ccc5c(c4o3)OCCCCO5)nc2s1`, 44.8%.
For the compound `COc1nn2cc(-c3cc4c(Br)cc5c(c4o3)OCCO5)nc2s1`, in series [2], the half-life at 1 µM was determined as 59.7 min. Moreover, 18.4 nM corresponded to half-maximal inhibition with Platelet [3] (IC50). For the same compound, the inhibition at 20 µM in the series on Platelet [1] is 83.1%.
Consider `COc1nn2cc(-c3cc4cc5c(cc4o3)OCCO5)nc2s1`, for which the inhibition at 20 µM with Platelet [1] was 88.4%.
Same read-out and setting: as for `c1cnn2cc(-c3cc4ccc5c(c4o3)OCCO5)nc2n1`, the figure is 2.08%.
Turning to `CSc1nn2cc(-c3cc4ccccc4o3)nc2s1`, in series [2], the half-life at 1 µM worked out at 11.1 min. In addition, the inhibition at 20 µM in the series on Platelet [1] stood at 81%.
In the same order, the values of `COc1nn2cc(-c3cc4c(OCCN5CCOCC5)cc5c(c4o3)OCCO5)nc2s1` are 33 min and 78.9%.
Regarding `COc1nn2cc(-c3cc4ccc5c(c4o3)CCCO5)nc2s1`, the inhibition at 20 µM with Platelet [1] is 1.14%.
For `COc1nn2cc(-c3cc4c(OCC(=O)N5CCC(F)(F)CC5)cc5c(c4o3)OCCO5)nc2s1`, the half-life at 1 µM in series [2] was determined as 16.1 min. In addition, the inhibition at 20 µM in the series on Platelet [1] came to 75.4%.
For the compound `COc1nn2cc(-c3cc4c(Cl)cc5c(c4o3)OCCO5)nc2s1`, in the series on Platelet [1], the inhibition at 20 µM was determined as 43.2%.
For the compound `COc1nn2cc(-c3cc4c(OCc5csc(-c6ccc(C(=O)N(C)C)cc6)n5)cc5c(c4o3)OCCO5)nc2s1`, the half-life at 1 µM in series [2] was 55.8 min. In the series on Platelet [1], the inhibition at 20 µM is 80.8%.
Consider `CCOC(=O)N[C@@H]1CC[C@@H]2[C@@H](C1)C[C@H]1C(=O)O[C@H](C)[C@H]1[C@H]2/C=C/c1ccc(-c2cccc(F)c2)cn1`, for which the outcome in series [4] was Active.
Turning to `[2H]c1cc2c(c3oc(-c4cn5nc(OC)sc5n4)cc13)OCCO2`, in series [2], the half-life at 1 µM is 15 min. This compound displayed an IC50 with Platelet [3] of 2.8 nM. The inhibition at 20 µM with Platelet [1] was found to be 79.9%.
Regarding `COc1nn2cc(-c3cc4c(OCc5nc(N6CCOCC6)sc5C)cc5c(c4o3)OCCO5)nc2s1`, the half-life at 1 µM in series [2] is 14.8 min. The compound further displayed an IC50 in the series with Platelet [3] of 9.2 nM. Moreover, the inhibition at 20 µM with Platelet [1] was 85.2%.
In the case of `FC(F)(F)c1nn2cc(-c3cc4ccc5c(c4o3)OCCO5)nc2s1`, in the series on Platelet [1], the inhibition at 20 µM came to 3.89%.
Same read-out and setting: as for `COc1nn2cc(-c3cc4c(OCc5csc(-c6ccc(C(F)(F)F)cc6)n5)cc5c(c4o3)OCCO5)nc2s1`, the figure is 6.57%; as for `COc1nn2cc(-c3cc4ccc5c(c4o3)CCCC5)nc2s1`, 8.02%.
Same read-out and setting: to `COc1nn2cc(-c3cc4c5c(ccc4o3)OCCO5)nc2s1` belongs 18.4%.
In the case of `CSc1nn2cc(-c3cc4ccc5c(c4o3)OCCOCCO5)nc2s1`, the inhibition at 20 µM with Platelet [1] is -1.3%.
On the same count and under the same terms, as for `COc1nn2cc(-c3cc4c(OCC(=O)N5CCN(C(C)=O)CC5)cc5c(c4o3)OCCO5)nc2s1`, the figure is 15.1%.
Regarding `COc1nn2cc(-c3cc4c(C5CC5)cc5c(c4o3)OCCO5)nc2s1`, the 50% inhibitory concentration (IC50) with Platelet [3] is 18.7 nM. In the series on Platelet [1], the inhibition at 20 µM was determined as 75.6%.
`COC(=O)[C@H](c1ccccc1Cl)N1CCc2sccc2C1` [CLOPIDOGREL]: the Activity entry in series [5] was “Toxic”.
Regarding `COc1nn2cc(-c3cc4ccc5ccccc5c4o3)nc2s1`, the inhibition at 20 µM with Platelet [1] was determined as 8.27%.
Turning to `COc1nn2cc(-c3cc4ccc5c(c4o3)OCO5)nc2s1`, the half-life at 1 µM in series [2] is 16.2 min. The half-inhibitory concentration (IC50) in the series on Platelet [3] was determined as 18.8 nM. For the same compound, the inhibition at 20 µM in the series on Platelet [1] came out at 77.5%.
For `COc1nn2cc(-c3cc4c(N5CCOCC5)cc5c(c4o3)OCCO5)nc2s1`, the inhibition at 20 µM in the series with Platelet [1] came out at 37.1%.
As for `COc1nn2cc(-c3cc4c(OCc5csc(N6CCSCC6)n5)cc5c(c4o3)OCCO5)nc2s1`, in the series on Platelet [3], the IC50 came to 9.2 nM. For the same compound, the inhibition at 20 µM in the series on Platelet [1] is 82.1%.
Consider `COc1nn2cc(-c3cc4c(-c5ccc(C)cc5)cc5c(c4o3)OCCO5)nc2s1`, for which the inhibition at 20 µM in the series on Platelet [1] is -0.13%.
Consider `Cc1ccc2nc(-c3cc4ccc5c(c4o3)OCCO5)cn2n1`, for which the half-life at 1 µM in series [2] was determined as 10.6 min. Also, the IC50 in the series on Platelet [3] is 10.8 nM. Besides, in the series with Platelet [1], the inhibition at 20 µM stood at 85%.
In the series on Platelet [3], `COc1nn2cc(-c3cc4ccc5c(c4o3)CCO5)nc2s1` gave an IC50 of 17.8 nM. Further, the inhibition at 20 µM in the series on Platelet [1] was 83.7%.
With `COc1nn2cc(-c3cc4ccc5c(c4o3)OCCCO5)nc2s1`, the half-life at 1 µM in series [2] came to 18.4 min. For the same compound, 17.1 nM corresponded to half-maximal inhibition in the series on Platelet [3] (IC50). The inhibition at 20 µM in the series with Platelet [1] is 76.8%.
Regarding `COc1ccc2nc(-c3cc4ccc5c(c4o3)OCCO5)cn2n1`, the inhibition at 20 µM with Platelet [1] came out at 0%.
As for `COc1nn2cc(-c3cc4c(F)cc5c(c4o3)OCCO5)nc2s1`, in series [2], the half-life at 1 µM is 34.3 min. In addition, the bioavailability in series [6] came out at 4.9%. The compound further returned a concentration for half-maximal inhibition (IC50) with Platelet [3] of 9.1 nM. Besides, the inhibition at 20 µM in the series on Platelet [1] is 74.8%.
On to `COc1nn2cc(-c3cc4c(OCc5ccccc5)cc5c(c4o3)OCCO5)nc2s1`, for which the inhibition at 20 µM with Platelet [1] amounted to 7.4%.

The values above are taken from ChEMBL document CHEMBL5543125, “Discovery of 2,3-Dihydro[1,4]dioxino[2,3-g]benzofuran Derivatives as Protease Activated Receptor 4 (PAR4) Antagonists with Potent Antiplatelet Aggregation Activity and Low Bleeding Tendency” (J Med Chem, 2024).
